Source: patent publication US10111937B2, “Method of reducing accumulation of intracellular tingible body macrophages” (THE REGENTS OF THE UNIVERSITY OF MICHIGAN, priority 2008, dated 2018)

Assays:
[1] = biological target: T1, LPLA2 (Canis lupus familiaris, UniProt Q6XPZ3); experiment: LPLA2 activity in MDCK cells treated with cationic amphiphilic drugs, measured as transacylation of N-acetylsphingosine; assay type: cell-based
T1 construct: endogenous in cells; host or cells: MDCK cells
T1 sequence (Q6XPZ3 32-408): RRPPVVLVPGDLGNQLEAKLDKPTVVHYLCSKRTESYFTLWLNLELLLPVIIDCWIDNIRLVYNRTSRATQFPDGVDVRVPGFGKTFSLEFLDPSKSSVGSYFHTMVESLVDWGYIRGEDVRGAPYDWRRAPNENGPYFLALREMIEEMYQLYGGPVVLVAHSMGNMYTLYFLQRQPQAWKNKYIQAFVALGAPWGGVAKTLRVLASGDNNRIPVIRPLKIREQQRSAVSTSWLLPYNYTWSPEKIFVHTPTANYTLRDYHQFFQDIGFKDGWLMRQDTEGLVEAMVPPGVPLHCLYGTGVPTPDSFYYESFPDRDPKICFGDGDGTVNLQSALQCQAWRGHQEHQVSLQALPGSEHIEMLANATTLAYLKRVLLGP
Protocol: LPLA2 activity was measured as the transacylation of N-acetylsphingosine. […] The major cellular phospholipids were assayed following 1 or 7 days of exposure to the CAD.

[2] = test system: acidic transacylation of ceramide; settings: lysosomal fraction of cells; earlier observation; cited from earlier work
[3] = biological target: T2, recombinant mouse LPLA2 (Mus musculus, UniProt Q8VEB4); experiment: Co-sedimentation of LPLA2 with liposomes (ultracentrifugation, SDS-PAGE); assay type: binding; settings: DOPC or DOPC/sulfatide (10:1) liposomes; 33 μM amiodarone; FIGS. 13B and 13C
T2 sequence (Q8VEB4 34-412): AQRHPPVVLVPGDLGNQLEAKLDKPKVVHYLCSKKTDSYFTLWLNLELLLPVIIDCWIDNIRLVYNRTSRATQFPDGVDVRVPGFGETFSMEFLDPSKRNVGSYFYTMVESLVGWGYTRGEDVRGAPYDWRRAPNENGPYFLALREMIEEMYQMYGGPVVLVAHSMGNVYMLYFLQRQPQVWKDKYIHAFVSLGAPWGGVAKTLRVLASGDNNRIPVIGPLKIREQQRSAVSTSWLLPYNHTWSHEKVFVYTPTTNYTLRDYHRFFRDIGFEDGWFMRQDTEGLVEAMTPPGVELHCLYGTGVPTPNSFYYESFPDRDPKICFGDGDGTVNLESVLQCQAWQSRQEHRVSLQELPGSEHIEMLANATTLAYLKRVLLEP
Protocol: Liposomes consisting of DOPC or DOPC/sulfatide (10:1, molar ratio) were incubated with varying amounts of recombinant mouse LPLA2 in 500 μl of 48 mM Na-citrate (pH 4.5) for 30 min on ice (FIG. 13A). […] The reaction mixtures were centrifuged for 1 h at 150,000 g at 4° C. The concentration of DOPC in these assays was 127 μM. The resultant precipitates were briefly washed with cold 50 mM Na-citrate (pH 4.5) and dissolved with 40 μl of SDS-polyacrylamide gel electrophoresis sampling buffer. The samples were separated by using 12% SDS-polyacrylamide gel. After electrophoresis, LPLA2 was detected by staining with CBB.

[4] = biological target: T3, LPLA2 (Homo sapiens, UniProt Q8NCC3); settings: background description; cited from earlier work
T3 sequence (Q8NCC3 34-412): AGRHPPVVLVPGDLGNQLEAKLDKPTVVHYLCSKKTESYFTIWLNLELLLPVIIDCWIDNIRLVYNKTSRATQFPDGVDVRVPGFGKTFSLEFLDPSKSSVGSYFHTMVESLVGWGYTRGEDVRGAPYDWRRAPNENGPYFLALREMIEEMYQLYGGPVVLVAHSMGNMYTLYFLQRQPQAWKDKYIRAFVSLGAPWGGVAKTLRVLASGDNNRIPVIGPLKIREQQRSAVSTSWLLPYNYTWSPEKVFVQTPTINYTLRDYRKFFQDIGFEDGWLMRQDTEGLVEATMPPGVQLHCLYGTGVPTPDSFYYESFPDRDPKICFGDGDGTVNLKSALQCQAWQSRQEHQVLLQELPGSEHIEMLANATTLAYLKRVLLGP

[5] = test system: LPLA2 null alveolar macrophages; experiment: Uptake of recombinant LPLA2 into LPLA2 null alveolar macrophages (Western blotting, confocal microscopy, enzyme activity); assay type: cell-based, mouse
Description: Recombinant glycosylated mouse LPLA2 produced by HEK293 cells was applied to LPLA2-deficient (LPLA2−/−) mouse alveolar macrophages. […] Thus, the predominant pathway for uptake of exogenous LPLA2 is via the mannose receptor. (Abe et al., J. Immunol, 181(11):7873-81, 2008).
The ability of macrophages from LPLA2−/− mice to recognize, endocytose, and traffic recombinant LPLA2 was studied as follows. LPLA2 null alveolar macrophages were exposed to His-tagged mouse LPLA2 for 1 day at concentrations varying between 0.3 and 10 μg/ml. Cell incorporation was measured by Western blotting and confocal microscopy using either anti-His antibody or a monoclonal antibody raised to LPLA2.
(§1) Finally, the ability of the recombinant enzyme to “rescue” the cellular phenotype was confirmed by measuring the cellular phospholipid content.

[6] = test system: LPLA2 null alveolar macrophages; settings: Abe et al. J. Immunol 2008; cited from earlier work
[7] = biological target: T2, recombinant mouse LPLA2; experiment: 1-O-acylceramide synthase (transacylase) activity of recombinant LPLA2 on liposomes, 1-O-oleoyl-NAS by HPTLC; assay type: biochemical; settings: DOPC/sulfatide/NAS liposomes vs DOPC/NAS, pH 4.5, 5-45 min at 37° C.; FIGS. 11A and 11B
Protocol: To address this possibility, the 1-O-acylceramide synthase activity of LPLA2 was studied in liposomes in which the anionic lipid content was varied by the addition of sulfatide, a negatively charged, sulfate containing glycolipid that is not a substrate for LPLA2. Di-octanoyl-PC (DOPC) was used as the liposomal substrate. The reaction mixture contained 48 mM sodium citrate (pH 4.5), 10 μg/ml BSA, liposomes (127 μM phospholipid) and 14.5 ng/ml of recombinant mouse LPLA2 in 500 μl of total volume. Liposomes consisting of DOPC/NAS (3:1, molar ratio) or DOP/sulfatide/NAS (3:0.3:1, molar ratio) were incubated with the enzyme for 5, 10, 15, 30 and 45 min at 37° C. The reaction products were extracted and separated by an HPTLC plate using a solvent system consisting of chloroform/acetic acid (9:1, v/v). The reaction product, 1-O-oleoyl-NAS, quantified by scanning the plate, was plotted against time (FIG. 11A). Liposomes consisting of DOPC/galactosylceramide/NAS or DOPC/sulfatide/NAS with a different molar ratio were incubated with the recombinant enzyme at 37° C. (FIG. 11B).

[8] = test system: LPLA2 null alveolar macrophages; experiment: Rescue of cellular phospholipid content in LPLA2 null alveolar macrophages by recombinant enzyme; assay type: cell-based, mouse; settings: LPLA2 null alveolar macrophages treated with enzyme
Description: as §1

For `CCCCCCCCCC(=O)NC(CN1CCOCC1)C(O)c1ccccc1` (centres unmarked) [PDMP, 1-phenyl-2-decanoylamino-3-morpholino-1-propanol], the “inhibition of LPLA2 activity as measured by ceramide transacylation” value ([1]; MDCK cells treated for 1 or seven days, FIG. 10A) is listed as “concentration dependent inhibition of LPLA2 activity”, the “IC50 for enzyme inhibition” value ([1]; MDCK cells, no numbers given) is listed as “comparable IC50s” and the “inhibition of acidic transacylation of ceramide” value [2] is listed as “inhibit acidic transacylation of ceramide”.

For `CCCCc1oc2ccccc2c1C(=O)c1cc(I)c(OCCN(CC)CC)c(I)c1` [amiodarone], the “physical association between LPLA2 and liposomes” value [3] was “inhibited”.

For `O=C1O/C(=C/Br)CCC1c1cccc2ccccc12` (centres unmarked) [bromoenollactone], the “inhibition of LPLA2 enzyme activity” value [4] is listed as “do not inhibit the enzyme activity”.

For `CCCCC/C=C\C/C=C\C/C=C\C/C=C\CCCC(=O)C(F)(F)F` [nonadecyltetraenyl trifluoromethyl ketone], the “inhibition of LPLA2 enzyme activity” value [4] is given as “do not inhibit the enzyme activity”.

In the case of `COC1O[C@H](CO)[C@@H](O)[C@H](O)[C@@H]1O` (stereo partly drawn) [α-Methyl-mannoside, α-methyl-mannoside], the “blocking of incorporation of recombinant LPLA2” value ([5]; 10 mM, 1-O-acyl-ceramide synthase activity, immunoblotting, confocal microscopy) is given as “blocked the incorporation of LPLA2” and the “suppression of uptake of exogenous LPLA2” value [6] is given as “significantly suppressed”.

For sulfatide, the “transacylation activity in presence of anionic lipid” value [7] was “time dependent increase in the transacylation activity” and the “physical association between LPLA2 and liposomes” value [3] was “increased”.

B1: Recombinant glycosylated mouse LPLA2: Recombinant glycosylated mouse LPLA2 produced by HEK293 cells (protein, UniProt Q8VEB4 34-412, looked up)
Lysosomal phospholipase A and …: T2 sequence (Q8VEB4 34-412)
modifications: HEK293-produced glycosylated
notes: Recombinant glycosylated mouse LPLA2 produced by HEK293 cells
In the case of B1, the “uptake of exogenous LPLA2 into LPLA2−/− alveolar macrophages” value [6] is listed as “occurred in a concentration-dependent manner”.

B2: His-tagged mouse LPLA2: His-tagged recombinant mouse lysosomal phospholipase A2 applied to LPLA2 null alveolar macrophages (protein)
chain: T2 sequence (Q8VEB4 34-412)
modifications: left off: small tags and cut ends
notes: His-tagged recombinant mouse lysosomal phospholipase A2 applied to LPLA2 null alveolar macrophages
With B2 the “cellular LPLA2 (cell incorporation)” value ([5]; 1 day at 0.3 to 10 μg/ml, Western blotting, confocal microscopy, enzyme activity) was “concentration dependent increase in cellular LPLA2”, the “co-localization with lysosome protein Lamp-1” value ([5]; cells stained with anti-LPLA2 and Lamp-1 antibodies) was “readily detected” and the “cell phosphatidylcholine and phosphatidylethanolamine content” value [8] was “concentration dependent decrease in cell phosphatidylcholine and phosphatidylethanolamine”.
